Measurements from patent US20260078120A1, “SUBSTITUTED PYRIDOPYRIMIDINONES” (MIRATI THERAPEUTICS, INC., priority 2022, published 2026).
Where two headings read alike, the source gives them in different places.

Columns and labels:
[1] = test system: T47D (PI3Kα H1047R mutant) cells; test: CellTiter-Glo 2.0 luminescent cell viability assay, 72 hours, T47D cells; format: cell-based; details: Homo sapiens, T47D, 72 h
Procedure, shortened: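 Cells seeded at 1000 per well overnight were dosed with a 10-concentration, 1:4 series starting at 10 µM and incubated ~72 h at 37° C. Viability was read by CellTiter-Glo 2.0 luminescence after 30 min at room temperature. IC50 came from four-parameter fits of percent vehicle control.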

[2] = test system: SKBR3 (PI3Kα wild type) cells; test: CellTiter-Glo 2.0 luminescent cell viability assay, 72 hours, SKBR3 cells; format: cell-based; details: Homo sapiens, SK-BR-3, 72 h
Procedure, shortened: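 Viability measured via CTG luminescence following roughly 72 hours of compound exposure at 37° C. Dosing used a 10 um starting concentration diluted 1:4 over 10 points; percent-of-vehicle data fitted with a variable-slope four-parameter model for IC50.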

[3] = T47D (PI3Kα H1047R mutant) cells, CellTiter-Glo, approximately 72 hours, read-out: T47D (H1047R mutant) Viability IC50
[4] = SKBR3 (PI3Kα wild type) cells, CellTiter-Glo, approximately 72 hours, read-out: SKBR3 (WT) Viability IC50

| IC50 [1, 3] [nM] | IC50 [2, 4] [nM] | IC50 ([1]; read-out: T47D (H1047R mutant) Viability IC50 (nM)) [nM] | IC50 ([2]; read-out: SKBR3 (WT) Viability IC50 (nM)) [nM] | Compound |
| --- | --- | --- | --- | --- |
| 113 | 1270 |  |  | Cc1cc(C(C)Nc2ccccc2C(=O)O)c2nc(N3CCN(c4ccc(C#N)cc4)CC3)cc(=O)n2c1 (stereo not shown) [Example 11-334, 2-((1-(2-(4-(4-cyanophenyl)piperazin-1-yl)-7-methyl-4-oxo-4H-pyrido[1,2-a]pyrimidin-9-yl)ethyl)amino)benzoic acid] |
| 263 | > 10000 |  |  | Cc1cc([C@@H](C)Nc2ccccc2C(=O)O)c2nc(N3CCN(c4cccc5c(C#N)nn(C)c45)CC3)c(C)c(=O)n2c1 [Example 11-251, (R)-2-((1-(2-(4-(3-cyano-1-methyl-1H-indazol-7-yl)piperazin-1-yl)-3,7-dimethyl-4-oxo-4H-pyrido[1,2-a]pyrimidin-9-yl)ethyl)amino)benzoic acid] |
| 1820 | > 10000 |  |  | Cc1cc([C@H](C)Nc2ccccc2C(=O)O)c2nc(N3CCCCC3)c(C(F)(F)F)c(=O)n2c1 [Example 11-414, (S)-2-((1-(7-methyl-4-oxo-2-(piperidin-1-yl)-3-(trifluoromethyl)-4H-pyrido[1,2-a]pyrimidin-9-yl)ethyl)amino)benzoic acid] |
| 880 | > 10000 |  |  | Cc1cc(C(C)Nc2ccc(C(F)(F)F)nc2C(=O)O)c2nc(N3Cc4ccccc4C3)c(C)c(=O)n2c1 (stereo not shown) [Example 11-355, 3-((1-(2-(isoindolin-2-yl)-3,7-dimethyl-4-oxo-4H-pyrido[1,2-a]pyrimidin-9-yl)ethyl)amino)-6-(trifluoromethyl) picolinic acid] |
| 114 | > 10000 |  |  | Cc1cc([C@@H](C)Nc2ccccc2C(=O)O)c2nc(N3CCC(F)(F)CC3)c(C)c(=O)n2c1 [Example 11-303, (R)-2-((1-(2-(4,4-difluoropiperidin-1-yl)-3,7-dimethyl-4-oxo-4H-pyrido [1,2-a]pyrimidin-9-yl)ethyl)amino)benzoic acid] |
| 2800 | > 10000 |  |  | Cc1cc([C@@H](C)Nc2ccccc2C(=O)O)c2nc(N3CC4(COC4)C3)c(C#N)c(=O)n2c1 [Example 11-321, (R)-2-((1-(3-cyano-7-methyl-4-oxo-2-(2-oxa-6-azaspiro[3.3]heptan-6-yl)-4H-pyrido[1,2-a]pyrimidin-9-yl)ethyl)amino)benzoic acid] |
| 252 | > 10000 |  |  | Cc1cc([C@@H](C)Nc2ccccc2C(=O)O)c2nc(N3CCN(c4ccccc4F)CC3)c(C)c(=O)n2c1 [Example 11-440, (R)-2-((1-(2-(4-(2-fluorophenyl)piperazin-1-yl)-3,7-dimethyl-4-oxo-4H-pyrido[1,2-a]pyrimidin-9-yl)ethyl)amino)benzoic acid] |
| > 10000 | > 10000 |  |  | C[C@H](Nc1ccccc1C(=O)O)c1cccn2c(=O)cc(N3CCCCC3)nc12 [Example 11-423, (S)-2-((1-(4-oxo-2-(piperidin-1-yl)-4H-pyrido[1,2-a]pyrimidin-9-yl)ethyl)amino)benzoic acid] |
| 1370 | > 10000 |  |  | Cc1cc(C(C)Nc2ccccc2C(=O)O)c2nc(N3Cc4ccccc4C3=O)c(C)c(=O)n2c1 (stereo not shown) [Example 11-362, 2-((1-(3,7-dimethyl-4-oxo-2-(1-oxoisoindolin-2-yl)-4H-pyrido[1,2-a]pyrimidin-9-yl)ethyl)amino)benzoic acid] |
|  |  | 1310 | > 10000 | Cc1cc(C(C)Nc2ccccc2C(=O)O)c2nc(N3CCOCC3)cc(=O)n2c1 (stereo not shown) [Example 11-420, 2-((1-(7-methyl-2-morpholino-4-oxo-4H-pyrido[1,2-a]pyrimidin-9-yl)ethyl)amino)benzoic acid] |
| 503 | > 10000 |  |  | Cc1cc([C@@H](C)Nc2ccccc2C(=O)O)c2nc(N3CCN(C)CC3)c(C#N)c(=O)n2c1 [Example 11-295, (R)-2-((1-(3-cyano-7-methyl-2-(4-methylpiperazin-1-yl)-4-oxo-4H-pyrido[1,2-a]pyrimidin-9-yl)ethyl)amino)benzoic acid] |
| 2740 | > 10000 |  |  | Cc1cc(C(C)Nc2ccccc2C(=O)O)c2nc(N3CCN(C(=O)C4CC4)CC3)cc(=O)n2c1 (stereo not shown) [Example 11-336, 2-((1-(2-(4-(cyclopropanecarbonyl)piperazin-1-yl)-7-methyl-4-oxo-4H-pyrido[1,2-a]pyrimidin-9-yl)ethyl)amino)benzoic acid] |

The remaining lines, values behind:

| Compound | IC50 [1, 3] [nM] | IC50 [2, 4] [nM] | IC50 ([1]; read-out: T47D (H1047R mutant) Viability IC50 (nM)) [nM] | IC50 ([2]; read-out: SKBR3 (WT) Viability IC50 (nM)) [nM] |
| --- | --- | --- | --- | --- |
| Cc1cc([C@@H](C)Nc2ccccc2C(=O)O)c2nc(N3CC(F)(F)C[C@@H]3C)c(C)c(=O)n2c1 [Example 11-126, 2-(((R)-1-(2-((S)-4,4-difluoro-2-methylpyrrolidin-1-yl)-3,7-dimethyl-4-oxo-4H-pyrido[1,2-a]pyrimidin-9-yl)ethyl)amino)benzoic acid] | 347 | > 10000 |  |  |
| Cc1cc([C@@H](C)Nc2ccccc2C(=O)O)c2nc(N3CCN(c4c(C)cccc4C)CC3)c(C)c(=O)n2c1 [Example 11-37, (R)-2-((1-(2-(4-(2,6-dimethylphenyl)piperazin-1-yl)-3,7-dimethyl-4-oxo-4H-pyrido[1,2-a]pyrimidin-9-yl)ethyl)amino)benzoic acid] | 816 | > 10000 |  |  |
| Cc1cc([C@@H](C)Nc2ccccc2C(=O)O)c2nc(N3C[C@@H]4C[C@H]3CN4c3ccc(C#N)cc3)c(C#N)c(=O)n2c1 [Example 11-175, 2-(((R)-1-(3-cyano-2-((1S,4S)-5-(4-cyanophenyl)-2,5-diazabicyclo[2.2.1]heptan-2-yl)-7-methyl-4-oxo-4H-pyrido[1,2-a]pyrimidin-9-yl)ethyl)amino)benzoic acid] | 3000 | > 10000 |  |  |
| Cc1cc([C@@H](C)Nc2ccccc2C(=O)O)c2nc(N3CCN(c4cccc(C#N)c4)C[C@@H]3C)c(C#N)c(=O)n2c1 [Example 11-85, 2-(((R)-1-(3-cyano-2-((S)-4-(3-cyanophenyl)-2-methylpiperazin-1-yl)-7-methyl-4-oxo-4H-pyrido[1,2-a]pyrimidin-9-yl)ethyl)amino)benzoic acid] | 404 | > 10000 |  |  |
| Cc1cc([C@@H](C)Nc2ccc(F)cc2C(=O)O)c2nc(N3CCC(F)(F)CC3)c(C#N)c(=O)n2c1 [Example 11-90, (R)-2-((1-(3-cyano-2-(4,4-difluoropiperidin-1-yl)-7-methyl-4-oxo-4H-pyrido[1,2-a]pyrimidin-9-yl)ethyl)amino)-5-fluorobenzoic acid] | 306 | > 10000 |  |  |
| Cc1cc([C@@H](C)Nc2ccccc2C(=O)O)c2nc(N3CCC(F)(F)[C@H](C)C3)c(C#N)c(=O)n2c1 [Example 11-64, 2-(((R)-1-(3-cyano-2-((R)-4,4-difluoro-3-methylpiperidin-1-yl)-7-methyl-4-oxo-4H-pyrido[1,2-a]pyrimidin-9-yl)ethyl)amino)benzoic acid] | 131 | > 10000 |  |  |
| Cc1cc([C@@H](C)Nc2ccccc2C(=O)O)c2nc(N3CCC(C)(C#N)CC3)c(C)c(=O)n2c1 [Example 11-69, (R)-2-((1-(2-(4-cyano-4-methylpiperidin-1-yl)-3,7-dimethyl-4-oxo-4H-pyrido[1,2-a]pyrimidin-9-yl)ethyl)amino)benzoic acid] | 168 | > 10000 |  |  |
| C[C@@H](Nc1ccccc1C(=O)O)c1cc(C2CC2)cn2c(=O)c(C#N)c(N3CCC(F)(F)CC3)nc12 [Example 10-83, (R)-2-((1-(3-cyano-7-cyclopropyl-2-(4,4-difluoropiperidin-1-yl)-4-oxo-4H-pyrido[1,2-a]pyrimidin-9-yl)ethyl)amino)benzoic acid] | 78.7 | > 10000 |  |  |
| Cc1cc([C@@H](C)Nc2ccccc2C(=O)O)c2nc(N3Cc4nccnc4C3)c(C)c(=O)n2c1 [Example 11-138, (R)-2-((1-(2-(5,7-dihydro-6H-pyrrolo[3,4-b]pyrazin-6-yl)-3,7-dimethyl-4-oxo-4H-pyrido[1,2-a]pyrimidin-9-yl)ethyl)amino)benzoic acid] | 392 | > 10000 |  |  |
| Cc1cc([C@@H](C)Nc2ccccc2C(=O)O)c2nc(N3CCC(C)(C#N)CC3)c(C#N)c(=O)n2c1 [Example 11-68, (R)-2-((1-(3-cyano-2-(4-cyano-4-methylpiperidin-1-yl)-7-methyl-4-oxo-4H-pyrido[1,2-a]pyrimidin-9-yl)ethyl)amino)benzoic acid] | 508 | > 10000 |  |  |
| Cc1cc([C@@H](C)Nc2ccccc2C(=O)O)c2nc(N3CC4(C3)CC4(F)F)c(C)c(=O)n2c1 [Example 11-103, (R)-2-((1-(2-(1,1-difluoro-5-azaspiro[2.3]hexan-5-yl)-3,7-dimethyl-4-oxo-4H-pyrido[1,2-a]pyrimidin-9-yl)ethyl)amino)benzoic acid] | 475 | > 10000 |  |  |
| Cc1cc([C@@H](C)Nc2ccccc2C(=O)O)c2nc(N3CC(O)C4(CCC4)C3)c(C)c(=O)n2c1 (stereo partly drawn) [Example 11-28, 2-(((1R)-1-(2-(8-hydroxy-6-azaspiro[3.4]octan-6-yl)-3,7-dimethyl-4-oxo-4H-pyrido[1,2-a]pyrimidin-9-yl)ethyl)amino)benzoic acid] | 187 | > 10000 |  |  |
| Cc1cc([C@@H](C)Nc2ccccc2C(=O)O)c2nc(N3Cc4nccnc4C3)c(C#N)c(=O)n2c1 [Example 11-137, (R)-2-((1-(3-cyano-2-(5,7-dihydro-6H-pyrrolo[3,4-b]pyrazin-6-yl)-7-methyl-4-oxo-4H-pyrido[1,2-a]pyrimidin-9-yl)ethyl)amino)benzoic acid] | 688 | > 10000 |  |  |
| Cc1cc([C@@H](C)Nc2ccccc2C(=O)O)c2nc(N3CC4C5CCC(CC5)C4C3)c(C)c(=O)n2c1 (stereo partly drawn) [Example 10-133, 2-(((1R)-1-(3,7-dimethyl-2-(octahydro-2H-4,7-ethanoisoindol-2-yl)-4-oxo-4H-pyrido[1,2-a]pyrimidin-9-yl)ethyl)amino)benzoic acid] | 55.4 | > 10000 |  |  |
